Laboratory results as given in ChEMBL document CHEMBL3297655, “Beyond affinity: enthalpy-entropy factorization unravels complexity of a flat structure-activity relationship for inhibition of a tRNA-modifying enzyme” (J Med Chem, 2014).

Key:
[1] = Inhibition of tRNA-guanine transglycosylase (unknown origin) assessed as entropy at 25 degC at 200 to 300 uM by isothermal titration calorimetry
[2] = Inhibition of tRNA-guanine transglycosylase (unknown origin) assessed as Gibbs free enthalpy at 25 degC at 200 to 300 uM by isothermal titration calorimetry
[3] = Inhibition of tRNA-guanine transglycosylase (unknown origin) assessed as buffer-corrected enthalpy values at 25 degC at 200 to 300 uM by isothermal titration calorimetry

-TdeltaS [1]	deltaG [2]	deltaH [3]	SMILES
6.36 kcal/mol	-9.49 kcal/mol	-15.8 kcal/mol	Nc1nc2cc3nc(NCc4cccs4)[nH]c3cc2c(=O)[nH]1
2.17 kcal/mol	-7.89 kcal/mol	-10.1 kcal/mol	O=c1[nH]cnc2cc3nc(NCc4cccs4)[nH]c3cc12
2.92 kcal/mol	-8.77 kcal/mol	-11.7 kcal/mol	O=c1[nH]cnc2cc3nc(NCCN4CCOCC4)[nH]c3cc12
8.68 kcal/mol	-10.2 kcal/mol	-18.9 kcal/mol	Nc1nc2cc3[nH]c(NCCN4CCCCC4)nc3cc2c(=O)[nH]1
12.9 kcal/mol	-10.2 kcal/mol	-23 kcal/mol	Nc1nc2cc3[nH]c(NCCN4CCOCC4)nc3cc2c(=O)[nH]1
3.37 kcal/mol	-8.72 kcal/mol	-12.1 kcal/mol	O=c1[nH]cnc2cc3[nH]c(NCCN4CCCCC4)nc3cc12
2.68 kcal/mol	-8.72 kcal/mol	-11.4 kcal/mol	CNc1nc2cc3c(=O)[nH]cnc3cc2[nH]1
13.3 kcal/mol	-9.94 kcal/mol	-23.3 kcal/mol	CNc1nc2cc3c(=O)[nH]c(N)nc3cc2[nH]1
